Experimental data published in US20260146041A1, “PANNEXIN-1 MODULATORS AND METHODS OF TREATING DISORDERS IN WHICH PANNEXIN-1 IS IMPLICATED” (Pannex Therapeutics Inc., priority 2022, published 2026).

Columns and labels:
astrocytes = test: LPS-stimulated ATP release by astrocytes; assay type: cell-based, rat; conditions: 5 or 50 μM, LPS stimulation, FIG. 15A
Description: (§1) Cortical microglia/astrocytes mechanically dissociated from decapitated postnatal P2-P4 rat pups (CD strain) were seeded on P75 flasks (1 brain per flask) and cultured at 37° C., 5% CO2 for 10-20 days using DMEM media supplemented with 10% FBS and 1% pen/strep. On Day 10, microglia were collected by gently shaking and washing and purify by passing through 20 μm cell strainer and centrifugation.
(§2) Re-suspended microglia were counted and plated onto poly-D-lysine coated 96-well culture plate at a density of 80,000 cells/well. Dislodged the remaining astrocytes (enriched astrocytes) and plated onto poly-D-lysine coated 96-well culture plate at a density of 50,000 cells/well. Overnighted microglia and/or astrocytes were treated with the PANX-1 blockers of the invention (5 or 50 μM), vehicle or control (carbenoxolone, CBX) and subjected to lipopolysaccharide stimulation. Extracellular ATP was assessed by multilabel plate reader Envision (ultrasensitive luminescence) using CellTiter-Glo (Promega) kit.

microglial cells = test: LPS-stimulated ATP release by microglial cells; assay type: cell-based, rat; conditions: 5 or 50 μM, LPS stimulation, FIG. 15B
Description: as §1, §2

human PANX1 channels = biological target: T1, human PANX1 channels (Homo sapiens, UniProt Q96RD7); test: Whole cell patch clamp assessment of PANX1 blockade on HEK293 cells stably expressing human PANX1 channels; assay type: cell-based; conditions: n=3
T1 construct: expressed in transfected cells; host or cells: HEK293
T1 sequence (Q96RD7 whole entry): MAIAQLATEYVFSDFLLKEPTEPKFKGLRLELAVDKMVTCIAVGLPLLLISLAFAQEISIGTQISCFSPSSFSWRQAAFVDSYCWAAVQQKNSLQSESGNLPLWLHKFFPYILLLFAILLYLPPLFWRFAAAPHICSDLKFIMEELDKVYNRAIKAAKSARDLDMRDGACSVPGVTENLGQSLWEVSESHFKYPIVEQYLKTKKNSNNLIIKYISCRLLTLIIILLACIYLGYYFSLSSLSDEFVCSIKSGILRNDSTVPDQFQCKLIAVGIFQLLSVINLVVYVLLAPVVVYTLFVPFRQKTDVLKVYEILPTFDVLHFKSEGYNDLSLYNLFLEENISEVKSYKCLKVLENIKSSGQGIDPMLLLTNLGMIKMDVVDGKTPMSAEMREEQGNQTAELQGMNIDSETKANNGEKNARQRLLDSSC
Description: The assessment of PANX1 blockade was assessed on HEK293 cells stably expressing human PANX1 channels, as previously described by Xu et al (2012). Briefly, wild type cells were seeded in six-well plates and 12-16 hours later, 60-70% confluent cells were transfected with the plasmid encoding hPANX1 using calcium phosphate. After 48 hours post-transfection, geneticin (G418), 0.8 mg/ml in fresh medium, was added to the cells to select for transfected clones and the medium was changed every other day. Once confluent, cells were transferred into flasks and maintained in medium containing G418 (0.8 mg/ml) for a total of 4 weeks from the transfection date.
To validate those cells as a tool to screen potential PANX1 inhibitors a number of known PANX1 inhibitors were assessed by whole cell patch clamp and the voltage/current diagrams compared to current literature. The pipette solution was 151 mM […], 10 mM HEPES, 10 mM EGTA, 3 mM MgCl2. Cells were maintained in normal extracellular solution (NES: 140 mM NaCl, 5 mM KCl, 2 mM CaCl2, 1 mM MgCl2, 10 mM D-glucose, 10 mM HEPES, pH 7.3). Voltage ramps of 1 s duration between −80 mV and +80 mV were applied at 5 s intervals. Opening of Panx1 channel was induced by hypotonic shock, by replacing the isotonic extracellular solution (310 mOsml/l) with hypotonic extracellular solution (198 mOsml/l).

Tg mice = conditions: AD model, acute inhibition; cited from earlier work
[1] = tested on: human cortical brain tissue slices; conditions: cited from earlier work
mice [2] = conditions: EAE MS model in mice; cited from earlier work
mice [3] = conditions: administered before naloxone; cited from earlier work
mice [4] = conditions: acute; cited from earlier work
CRC cells = conditions: cited from earlier work

CC1CCCC(n2cnc3c(N4CCCC4C)ncnc32)O1 (stereo not shown) [CMPD019]
release of ATP by astrocytes (astrocytes): prevented
release of ATP by microglial cells (microglial cells): prevented

O=C(O)c1ccc2c(c1)c(C(=O)O)cn2CCCc1ccccc1 [CMPD043]
release of ATP by astrocytes (astrocytes): prevented
release of ATP by microglial cells (microglial cells): prevented

O=C(O)c1ccn2c(n1)nc1ccc(Cl)cc12 [CMPD054]
release of ATP by astrocytes (astrocytes): prevented
release of ATP by microglial cells (microglial cells): prevented

N[C@@H]1[C@H]2CN(c3nc4c(cc3F)c(=O)c(C(=O)O)cn4-c3cc(-c4nnn[nH]4)ccc3Cl)C[C@@H]12 [CMPD 053]
release of ATP by astrocytes (astrocytes): prevented
release of ATP by microglial cells (microglial cells): prevented

CC1(C)[C@@H](OC(=O)CCC(=O)O)CC[C@]2(C)[C@H]3C(=O)C=C4[C@@H]5C[C@@](C)(C(=O)O)CC[C@]5(C)CC[C@@]4(C)[C@]3(C)CC[C@@H]12 [Carbenoxolone]
inhibitory effect on PANX1 (human PANX1 channels; at 50 μM): inhibitory effect

CCCN(CCC)S(=O)(=O)c1ccc(C(=O)O)cc1 [Probenecid]
excitatory synaptic defects (Tg mice): significantly reduced excitatory synaptic defects
ictal discharges [1]: blocked ictal discharges
clinical symptoms (disease score) (mice [2]): reduced clinical symptoms
withdrawal behaviours (mice [3]): markedly reduced

CC(=O)S[C@@H]1CC2=CC(=O)CC[C@]2(C)[C@H]2CC[C@@]3(C)[C@@H](CC[C@@]34CCC(=O)O4)[C@H]12 [Spirolactone, Spironolactone]
blood pressure (mice [4]): acutely lowers blood pressure
inhibitory effect on PANX1 (human PANX1 channels; at 3, 10, or 30 μM): inhibitory effect

OC(c1cc(C(F)(F)F)nc2c(C(F)(F)F)cccc12)C1CCCCN1 (stereo not shown) [mefloquine]
growth arrest and apoptosis of CRC cells (CRC cells; CRC cells harboring phosphorylated p65, in culture and in mice): induced growth arrest and apoptosis
NF-κB inhibition (CRC cells; colorectal cancer cells): NF-κB inhibitor
ictal discharges [1]: blocked ictal discharges
withdrawal behaviours (mice [3]): markedly reduced
